Reference: patent publication US10131669B2, “Pyrazolopyrimidine compounds” (Pfizer Inc., priority 2014, dated 2018)
pIC50: −log10 of the molar value. Counter-ions that a name gives are not always drawn.

How the values were obtained:
Assay type in all cases: biochemical
human PDE4D3 = target: T1, human PDE4D3 (Homo sapiens, UniProt Q08499); experiment: PDE4D3 Scintillation Proximity Assay (SPA), inhibition of enzyme activity; conditions: geometric mean of 2-7 determinations unless otherwise indicated (b: ≥8 determinations; c: single determination); 1 μM cAMP, 30 min at 25° C.; read-out: Human PDE4D FL; IC50
T1 construct: His6 (C); made in house; host or cells: insect cells (baculovirus, pFastBac)
Protocol: The recombinant Bacmid was isolated and used to transfect insect cells to generate a viral stock. To generate cell paste for purification, insect cells were infected and cells were harvested 72 hours after infection. Insect cell paste was lysed and after centrifugation, the supernatant was chromatographed on Ni-NTA agarose (Qiagen) as described in Seeger, T. F. et al., Brain Research 985 (2003) 113-126. Ni-NTA agarose eluting fractions containing PDE4 were pooled, diluted with Q Buffer A (50 mM Tris HCl pH 8, 4% glycerol, 100 mM NaCl, 1 mM TCEP, Protease inhibitors EDTA-free (Roche)) to reduce NaCl to ˜200 mM, and loaded on a Q Sepharose (GE Healthcare) column. After washing with Q buffer A to baseline, PDE4D was eluted with a gradient from 10% to 60% of Buffer B (50 mM Tris HCl pH 8, 1 M NaCl, 4% glycerol, 1 mM TCEP). PDE4D fractions were analyzed by SDS-PAGE Coomassie blue staining, pooled based on purity, frozen and stored at −80° C.
(§1) The PDE4A3, PDE4B1, PDE4C1 and PDE4D3 assays use the Scintillation Proximity Assay (SPA) technology to measure the inhibition of human recombinant […], PDE4C1, and PDE4D3 enzyme activity by compounds in vitro. The PDE4A1, PDE4B3, PDE4C1, and PDE4D3 assays are run in parallel using identical parameters, except for the concentration of enzyme (80 pM PDE4A3, 40 pM PDE4B3, 40 pM PDE4C1 and 10 pM PDE4D). The assays are performed in a 384-well format with 50 uL assay buffer (50 mM TRIS pH7.5; 1.3 mM MgCl2; 0.01% Brij) containing enough PDE4A3, PDE4B1, PDE4C1, and PDE4D to convert ˜20% of substrate (1 μM cAMP consisting of 20 nM 3H-cAMP+[…] cold cAMP) and a range of inhibitors. Reactions are incubated for 30 min at 25° C. The addition of 20 uL of 8 mg/ml yitrium silicate SPA beads (Perkin Elmer) stops the reaction. The plates are sealed (TopSeal, Perkin Elmer) and the beads are allowed to settle for 8 hrs, after which they are read on the Trilux Microbeta overnight.

Human PDE4A3 = target: T2, Human PDE4A3 (Homo sapiens, UniProt P27815); experiment: PDE4A3 Scintillation Proximity Assay (SPA), inhibition of enzyme activity; conditions: geometric mean of 2-7 determinations unless otherwise indicated (b: ≥8 determinations; c: single determination), 1 μM cAMP, 30 min at 25° C., read-out: Human PDE4A FL
T2 construct: His6 (N); FLAG (C); made in house; host or cells: insect cells (baculovirus, pFastBac)
From the text: (§2) Human PDE4A3 coding sequence (amino acids 2 to 825 from the sequence with accession number NP_001104779) was cloned into the baculovirus expression vector pFastBac (Invitrogen) engineered to include an N-terminal His6 affinity tag and a c-terminal FLAG affinity tag to aid in purification. The recombinant Bacmid was isolated and used to transfect insect cells to generate a viral stock. To generate cell paste for purification, insect cells were infected with the virus stock and cells were harvested 72 hours after infection. Insect cell paste was lysed and after centrifugation, the supernatant was batch bound to Ni-NTA agarose (GE Healthcare) and eluted with 250 mM imidazole. This eluate was diluted with FLAG buffer (50 mM Tris HCL pH 7.5, 100 mM NaCl, 5% Glycerol, 1 mM TCEP with protease inhibitors) and batch bound to ant-FLAG M2 agarose (Sigma) overnight at 4° C. The agarose was packed into a column, washed with buffer and eluted with buffer containing elute using 250 ug/ml Flag-peptide. Fractions were analyzed using SDS-PAGE Coomassie blue staining and pooled based on purity. Pooled fractions were chromatographed on a S200 120 ml column (GE Healthcare) in 50 mM Tris HCL pH 7.5, 150 mM NaCl, 10% Glycerol, 2 mM TCEP with protease inhibitors. PDE4A3 fractions were analyzed by SDS-PAGE Coomassie blue staining, pooled based on purity, dialyzed against 50 mM Tris HCL pH 7.5, 100 mM NaCl, 20% Glycerol, 2 mM TCEP, frozen and stored at −80° C.
as §1

Human PDE4B1 = target: T3, Human PDE4B1 (Homo sapiens, UniProt Q07343, S133E/S654A/S659A/S661A); experiment: PDE4B1 Scintillation Proximity Assay (SPA), inhibition of enzyme activity; conditions: geometric mean of 2-7 determinations unless otherwise indicated (b: ≥8 determinations; c: single determination); 1 μM cAMP, 30 min at 25° C.; read-out: Human PDE4B FL; IC50
T3 construct: His6 (N); thrombin cleavage site (N); made in house; host or cells: insect cells (baculovirus, pFastBac)
Protocol: The recombinant Bacmid was isolated and used to transfect insect cells to generate a viral stock. To generate cell paste for purification, insect cells were infected with the virus stock and cells were harvested 72 hours after infection as described in Seeger, T. F. et al., Brain Research 985 (2003) 113-126. Insect cell paste was lysed and after centrifugation, the supernatant was chromatographed on Ni-NTA agarose (Qiagen) as described in Seeger, T. F. et al., Brain Research 985 (2003) 113-126. Ni-NTA agarose eluting fractions containing PDE4 were pooled, diluted with Q buffer A (20 mM Tris HCl pH 8, 5% glycerol, 1 mM TCEP) to reduce NaCl to ˜100 mM and loaded on a Source 15Q (GE Healthcare) column. After washing with Q buffer A/10% buffer B to baseline, PDE4D was eluted with a gradient from 10% to 60% of Buffer B (20 mM Tris HCl pH 8, 1 M NaCl, 5% glycerol, 1 mM TCEP). PDE4D fractions were analyzed by SDS-PAGE Coomassie blue staining, pooled based on purity, frozen and stored at −80° C.
as §1

Human PDE4C1 = target: T4, Human PDE4C1 (Homo sapiens, UniProt Q08493); experiment: PDE4C1 Scintillation Proximity Assay (SPA), inhibition of enzyme activity; conditions: geometric mean of 2-7 determinations unless otherwise indicated (b: ≥8 determinations; c: single determination), 1 μM cAMP, 30 min at 25° C., read-out: Human PDE4C FL
T4 construct: His6 (N); FLAG (C); made in house; host or cells: insect cells (baculovirus, pFastBac)
Protocol: as §2, with “The” for “Human PDE4A3 coding sequence (amino acids 2 to 825 from the sequence with accession number NP_001104779) was cloned into the baculovirus expression vector pFastBac (Invitrogen) engineered to include an N-terminal His6 affinity tag and a c-terminal FLAG affinity tag to aid in purification. The”, “PDE4C1” for “PDE4A3”
as §1

T2 sequence (P27815 2-825 isoform P27815-6): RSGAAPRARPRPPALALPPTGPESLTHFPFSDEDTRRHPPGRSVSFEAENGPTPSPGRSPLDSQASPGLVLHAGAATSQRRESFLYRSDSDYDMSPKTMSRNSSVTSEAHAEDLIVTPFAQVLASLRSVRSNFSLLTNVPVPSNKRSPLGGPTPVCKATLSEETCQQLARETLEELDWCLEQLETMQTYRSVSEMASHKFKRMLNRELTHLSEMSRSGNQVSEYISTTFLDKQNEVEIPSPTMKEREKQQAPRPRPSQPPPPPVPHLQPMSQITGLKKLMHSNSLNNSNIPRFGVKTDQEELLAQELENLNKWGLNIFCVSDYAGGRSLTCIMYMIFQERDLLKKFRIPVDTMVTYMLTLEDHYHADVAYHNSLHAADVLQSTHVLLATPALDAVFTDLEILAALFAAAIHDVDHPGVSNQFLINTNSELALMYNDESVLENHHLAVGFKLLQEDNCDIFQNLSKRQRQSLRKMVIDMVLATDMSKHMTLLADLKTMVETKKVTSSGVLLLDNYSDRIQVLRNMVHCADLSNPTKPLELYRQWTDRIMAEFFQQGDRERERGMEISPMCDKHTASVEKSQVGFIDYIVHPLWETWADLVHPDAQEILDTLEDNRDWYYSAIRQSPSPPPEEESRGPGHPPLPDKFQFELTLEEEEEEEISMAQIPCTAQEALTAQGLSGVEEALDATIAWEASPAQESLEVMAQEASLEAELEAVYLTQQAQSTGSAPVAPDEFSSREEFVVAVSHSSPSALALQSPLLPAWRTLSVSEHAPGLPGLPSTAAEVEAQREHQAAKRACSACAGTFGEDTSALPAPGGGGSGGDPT
T3 sequence (Q07343 122-736 S133E/S654A/S659A/S661A): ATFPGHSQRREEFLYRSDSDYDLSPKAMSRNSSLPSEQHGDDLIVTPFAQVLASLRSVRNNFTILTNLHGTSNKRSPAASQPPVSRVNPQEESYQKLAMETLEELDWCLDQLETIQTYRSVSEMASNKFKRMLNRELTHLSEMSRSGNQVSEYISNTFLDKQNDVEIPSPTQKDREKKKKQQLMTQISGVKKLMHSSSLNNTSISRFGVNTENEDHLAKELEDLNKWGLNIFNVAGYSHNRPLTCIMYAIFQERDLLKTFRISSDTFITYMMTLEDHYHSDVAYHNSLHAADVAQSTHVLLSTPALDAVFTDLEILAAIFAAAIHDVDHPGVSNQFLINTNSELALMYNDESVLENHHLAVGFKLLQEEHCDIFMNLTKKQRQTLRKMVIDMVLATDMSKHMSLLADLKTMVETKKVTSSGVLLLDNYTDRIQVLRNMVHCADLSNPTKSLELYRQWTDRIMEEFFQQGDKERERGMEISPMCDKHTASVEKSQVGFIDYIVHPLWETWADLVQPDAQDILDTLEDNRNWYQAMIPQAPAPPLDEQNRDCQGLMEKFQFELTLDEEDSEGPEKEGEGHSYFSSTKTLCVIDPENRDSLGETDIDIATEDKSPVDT
T4 sequence (Q08493 2-712): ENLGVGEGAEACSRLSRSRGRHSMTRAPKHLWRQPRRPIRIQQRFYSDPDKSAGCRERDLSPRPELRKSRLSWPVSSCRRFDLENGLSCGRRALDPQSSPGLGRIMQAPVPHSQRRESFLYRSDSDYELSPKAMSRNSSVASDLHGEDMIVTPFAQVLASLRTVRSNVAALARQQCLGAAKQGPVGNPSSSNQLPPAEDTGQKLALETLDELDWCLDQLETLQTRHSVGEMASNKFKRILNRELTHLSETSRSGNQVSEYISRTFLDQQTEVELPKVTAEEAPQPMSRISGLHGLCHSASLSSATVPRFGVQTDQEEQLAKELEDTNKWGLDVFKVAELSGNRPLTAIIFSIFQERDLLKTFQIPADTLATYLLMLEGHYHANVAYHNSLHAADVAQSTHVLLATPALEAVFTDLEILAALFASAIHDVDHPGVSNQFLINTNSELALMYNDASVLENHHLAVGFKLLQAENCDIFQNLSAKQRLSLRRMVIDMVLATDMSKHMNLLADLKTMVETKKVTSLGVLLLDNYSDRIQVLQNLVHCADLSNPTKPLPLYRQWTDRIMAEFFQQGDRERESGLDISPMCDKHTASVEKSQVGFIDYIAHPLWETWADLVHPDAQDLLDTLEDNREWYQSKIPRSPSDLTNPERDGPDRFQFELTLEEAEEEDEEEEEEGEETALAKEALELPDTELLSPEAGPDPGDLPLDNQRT
T1 sequence (Q08499 186-808): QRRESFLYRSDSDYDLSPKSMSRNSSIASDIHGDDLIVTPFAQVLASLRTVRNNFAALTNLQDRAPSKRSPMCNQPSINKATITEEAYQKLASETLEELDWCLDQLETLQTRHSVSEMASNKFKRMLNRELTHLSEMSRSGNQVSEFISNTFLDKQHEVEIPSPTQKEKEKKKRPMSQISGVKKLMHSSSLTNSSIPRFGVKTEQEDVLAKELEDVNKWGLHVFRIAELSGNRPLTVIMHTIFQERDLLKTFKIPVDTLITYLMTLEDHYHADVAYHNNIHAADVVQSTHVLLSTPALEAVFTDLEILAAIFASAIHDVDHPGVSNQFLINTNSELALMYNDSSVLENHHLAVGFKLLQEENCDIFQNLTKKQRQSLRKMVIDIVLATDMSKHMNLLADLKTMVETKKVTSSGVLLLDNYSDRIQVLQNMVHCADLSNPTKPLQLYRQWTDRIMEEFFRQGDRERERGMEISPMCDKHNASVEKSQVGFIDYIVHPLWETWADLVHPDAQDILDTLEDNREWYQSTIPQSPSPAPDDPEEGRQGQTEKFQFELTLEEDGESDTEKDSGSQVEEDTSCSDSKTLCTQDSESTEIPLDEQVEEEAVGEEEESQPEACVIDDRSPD

| Compound | pIC50 (human PDE4D3) | pIC50 (Human PDE4A3) | pIC50 (Human PDE4B1) | pIC50 (Human PDE4C1) |
| --- | --- | --- | --- | --- |
| N#Cc1ccc(-c2c(C(=O)N3CCC3)nn3cc(F)cnc23)cc1F [Example 68, 4-[2-(azetidin-1-ylcarbonyl)-6-fluoropyrazolo[1,5-a]pyrimidin-3-yl]-2-fluorobenzonitrile] | 6.58 | 8.48 | 7.77 | 7.48 |
| CCCNC(=O)c1nn2cccnc2c1-c1ccc(Cl)cc1 [Example 2, 3-(4-Chlorophenyl)-N-propylpyrazolo[1,5-a]pyrimidine-2-carboxamide] | 5.38 | 7.21 | 7.46 | 7.22 |
| O=C(NC1CC1)c1nn2cccnc2c1-c1ccc(Cl)c(F)c1F [Example 71, 3-(4-chloro-2,3-difluorophenyl)-N-cyclopropylpyrazolo[1,5-a]pyrimidine-2-carboxamide] | 6.10 | 7.99 | 7.59 | 7.95 |
| Cc1cc(Cl)c(F)cc1-c1c(C(=O)NC2CC2)nn2cc(F)cnc12 [Example 64, 3-(4-chloro-5-fluoro-2-methylphenyl)-N-cyclopropyl-6-fluoropyrazolo[1,5-a]pyrimidine-2-carboxamide] | 7.28 | 9.00 | 8.70 | 8.35 |
| O=C(NC1CC1)c1nn2cc(F)cnc2c1-c1ccc(Cl)c(F)c1 [Example 59, 3-(4-chloro-3-fluorophenyl)-N-cyclopropyl-6-fluoropyrazolo[1,5-a]pyrimidine-2-carboxamide] | 6.80 | 8.92 | 8.31 | 8.11 |
| O=C(c1nn2cccnc2c1-c1cccc(Cl)c1)N1CCC1 [Example 48, azetidin-1-yl[3-(3-chlorophenyl)pyrazolo[1,5-a]pyrimidin-2-yl]methanone] | < 4.80 | 6.78 | 6.63 | 7.12 |
| Cc1cc(Cl)ccc1-c1c(C(=O)NC2CC2)nn2cc(F)cnc12 [Example 55, 3-(4-chloro-2-methylphenyl)-N-cyclopropyl-6-fluoropyrazolo[1,5-a]pyrimidine-2-carboxamide] | 5.97 | 8.06 | 7.52 | 7.55 |
| N#Cc1cc(F)c(-c2c(C(=O)NC3CC3)nn3cccnc23)cc1F [Example 45, 3-(4-cyano-2,5-difluorophenyl)-N-cyclopropylpyrazolo[1,5-a]pyrimidine-2-carboxamide] | 5.88 | 7.66 | 7.29 | 7.38 |
| O=C(NC1CC1)c1nn2cccnc2c1-c1ccc(Cl)cc1 [Example 10, 3-(4-chlorophenyl)-N-cyclopropylpyrazolo[1,5-a]pyrimidine-2-carboxamide] | 5.23 | 7.60 | 7.01 | 7.37 |
| N#Cc1ccc(-c2c(C(=O)NC3CC3)nn3cccnc23)cn1 [Example 44, 3-(6-cyanopyridin-3-yl)-N-cyclopropylpyrazolo[1,5-a]pyrimidine-2-carboxamide] | < 4.92 | 6.72 | 6.45 | 6.05 |
| Cc1cc(C#N)c(F)cc1-c1c(C(=O)NC2CCC2)nn2cccnc12 [Example 22, 3-(4-cyano-5-fluoro-2-methylphenyl)-N-cyclobutylpyrazolo[1,5-a]pyrimidine-2-carboxamide] | 5.06 | 6.78 | 6.56 | 6.91 |
| O=C(NC1CC1)c1nn2cccnc2c1-c1cccc(Cl)c1 [Example 31, 3-(3-chlorophenyl)-N-cyclopropylpyrazolo[1,5-a]pyrimidine-2-carboxamide, hydrochloride salt] | 5.67 | 7.44 | 7.29 | 6.97 |
| O=C(c1nn2cccnc2c1-c1cc(F)c(Cl)cc1F)N1CCC1 [Example 49, azetidin-1-yl[3-(4-chloro-2,5-difluorophenyl)pyrazolo[1,5-a]pyrimidin-2-yl]methanone] | 5.89 | 8.14 | 7.20 | 7.53 |
| O=C(c1nn2cccnc2c1-c1ccc(Cl)cc1)N1CCC1 [Example 1, Azetidin-1-yl[3-(4-chlorophenyl)pyrazolo[1,5-a]pyrimidin-2-yl]methanone] | < 5.03 | 7.75 | 7.28 | 7.07 |
| CCNC(=O)c1nn2cccnc2c1-c1cc(F)c(C#N)cc1C [Example 16, 3-(4-cyano-5-fluoro-2-methylphenyl)-N-ethylpyrazolo[1,5-a]pyrimidine-2-carboxamide] | 5.60 | 7.80 | 7.27 | 7.10 |
| CC1(NC(=O)c2nn3cccnc3c2-c2ccc(Cl)cc2)CC1 [Example 11, 3-(4-chlorophenyl)-N-(1-methylcyclopropyl)pyrazolo[1,5-a]pyrimidine-2-carboxamide] | < 4.97 | 7.09 | 7.20 | 6.56 |
